This note sets out measurements from patent US20100160556A1, “GLP-1 Fusion Peptides Conjugated to Polymer(s), Their Production and Use” (priority 2007, published 2010).

Ends that are not written are not given here.

Series [1] addresses T1, DPPIV (Homo sapiens, UniProt P27487). Put plainly: In vitro plasma stability (kinetic test method), GLP-1 (active) ELISA. Particulars: for remaining at 9 h, 1 μM: human, pH 7.8. On the technique in general: ELISA stands for enzyme-linked immunosorbent assay.
Target sequence in this assay (P27487 whole entry): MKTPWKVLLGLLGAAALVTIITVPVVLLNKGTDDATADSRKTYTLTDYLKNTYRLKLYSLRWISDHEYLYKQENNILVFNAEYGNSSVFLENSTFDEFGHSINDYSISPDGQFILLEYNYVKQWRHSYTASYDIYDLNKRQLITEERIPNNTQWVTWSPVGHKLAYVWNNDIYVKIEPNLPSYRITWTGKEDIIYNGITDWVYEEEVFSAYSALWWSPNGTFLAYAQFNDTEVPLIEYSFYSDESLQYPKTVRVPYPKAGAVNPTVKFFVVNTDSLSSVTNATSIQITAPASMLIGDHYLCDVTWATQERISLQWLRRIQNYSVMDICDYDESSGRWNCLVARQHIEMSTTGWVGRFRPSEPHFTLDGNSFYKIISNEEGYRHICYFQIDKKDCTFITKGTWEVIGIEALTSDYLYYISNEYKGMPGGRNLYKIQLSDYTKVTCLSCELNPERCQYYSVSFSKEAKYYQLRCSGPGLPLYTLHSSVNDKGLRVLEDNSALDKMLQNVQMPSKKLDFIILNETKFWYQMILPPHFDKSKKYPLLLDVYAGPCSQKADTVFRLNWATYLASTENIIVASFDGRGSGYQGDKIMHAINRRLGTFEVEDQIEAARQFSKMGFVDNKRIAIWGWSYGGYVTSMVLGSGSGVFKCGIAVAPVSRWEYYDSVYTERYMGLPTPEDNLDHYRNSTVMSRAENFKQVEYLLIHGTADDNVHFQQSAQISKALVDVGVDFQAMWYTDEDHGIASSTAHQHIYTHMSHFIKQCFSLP
Source text: Results are from triplicates in at least two independent experiments.
The target in another series is T2, GLP-1 receptor (Homo sapiens, UniProt P43220).
T2 construct: expressed in transfected cells; host or cells: CHO cell line
It counts as cell-based. How it is done:
GLP-1 Bioassay cAMP Increase
The in vitro bioactivity was tested in a GLP-1 receptor transfected CHO cell line by determining the half maximum effective dose (ED50)

The target in series [2] is T1, DPPIV. The series is described as follows: In vitro human plasma stability of GLP-1 CM peptides. The settings on record: 20 ng/ml, 37° C., 3 hours.
Target sequence in this assay (P27487 39-766 limits assumed): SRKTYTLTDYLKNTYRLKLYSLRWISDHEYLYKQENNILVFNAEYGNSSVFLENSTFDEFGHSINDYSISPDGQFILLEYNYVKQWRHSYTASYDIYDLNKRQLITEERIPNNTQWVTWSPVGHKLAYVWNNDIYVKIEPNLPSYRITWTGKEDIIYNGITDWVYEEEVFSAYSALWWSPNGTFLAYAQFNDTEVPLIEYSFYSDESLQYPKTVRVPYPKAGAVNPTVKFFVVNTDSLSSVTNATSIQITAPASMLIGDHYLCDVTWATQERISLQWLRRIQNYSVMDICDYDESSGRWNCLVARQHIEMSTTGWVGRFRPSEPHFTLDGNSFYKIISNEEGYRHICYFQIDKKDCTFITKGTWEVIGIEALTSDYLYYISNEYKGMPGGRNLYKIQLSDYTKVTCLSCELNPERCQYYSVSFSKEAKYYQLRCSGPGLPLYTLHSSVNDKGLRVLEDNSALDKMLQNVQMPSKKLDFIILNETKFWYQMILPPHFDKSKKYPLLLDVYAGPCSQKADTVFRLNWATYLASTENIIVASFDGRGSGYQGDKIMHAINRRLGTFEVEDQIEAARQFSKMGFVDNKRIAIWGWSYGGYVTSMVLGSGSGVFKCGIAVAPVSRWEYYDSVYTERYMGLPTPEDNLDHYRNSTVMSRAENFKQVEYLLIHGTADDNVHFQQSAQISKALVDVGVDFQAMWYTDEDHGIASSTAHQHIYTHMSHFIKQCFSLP
Source text: Dipeptidylpeptidase activity of the plasma was inhibited by an DPP-IV inhibitor (#DPP4, Biotrend).
In a further series the test system is diabetic db/db mice. Put plainly: In vivo bioactivity of PEGylated peptide in diabetic db/db mice.
Series [3] deals with type II diabetic mice (C57BL/Ks-Lepr db/db). Put plainly: In vivo bioactivity in type II diabetic mice. The settings on record: 5 μg peptide s.c. twice a day, day 2, 4, 7, 10. As to the method: 11-week-old type II diabetic mice (C57BL/Ks-Lepr^db/db, Harlan) were treated with 5 μg peptide by subcutaneous injection twice a day at 9 a.m. and 5 p.m. (n=5 per group). Blood glucose was measured before (day 0) and after treatment with GLP^CM peptides (Day 2, 4, 7, 10) at 10 a.m. after an overnight fastening period. Data were presented in relation to blood glucose levels measured at day 0.
Best results were obtained with recombinant SEQ ID NO:6 (CM1) and synthetic SEQ ID NO:8 (CM3). In FIG. 9 (y-axis) the relative effect of the treatment is shown. Blood glucose at day ═O was set to 1. Untreated animals undergo continuous increase in blood glucose level over time, whereas animals treated with inventive peptides display grosso modo a continuous decrease of the blood glucose level over time.

The test system of series [4] is BALB/c mice. The settings on record: mouse, in vivo.
Procedure: (§1) The trial was done in BALB/c mice receiving 5 repeated injections (70 μg peptide/dose, i.v.) over 22d (n=5).
(§2) Spleens of the treated and control mice were explanted, T-cells isolated and stimulated with increasing amounts of antigene. Proliferative recall response is measured.
The subject of series [5] is BALB/c mice. Put plainly: In vivo immunogenicity study. Particulars: 5 repeated injections, 70 μg peptide/dose, i.v., over 22d.
Procedure: as §1, §2
The test system of series [6] is diabetic C57BL/KsJ@Rj-db (db/db) mice. Put plainly: Dose-efficacy study in diabetic mice. It counts as in vivo. As to the method: A sixth group was treated with saline only. 7 animals were treated per group. Blood glucose was determined from tail bleeds directly before, 1 hour and 4 hours after injection.
The results are shown in dose-response curves according to FIG. 12 ([…] (GLP-1), FIG. 12B (CM1), FIG. 12C (CM3) and FIG. 12D (CM3-ANA01)). For every test substance a graph was prepared with the percentage difference of the blood glucose in relation to the start value for the different concentrations. […] Both models are sigmoidal fit models suitable for dose response evaluation. For every peptide the plasma glucose ED50 values (single s.c. dose in μg/mouse) have been determined from the percentage decrease of blood glucose.
The fall in plasma glucose and the corresponding significance levels are given for the time period 1 hour (@1 h) and 4 hours (@4 h) after peptide injection. Differences have been observed in the long-term efficacy of the peptides.

Series [7] deals with C57BL/KsJ@Rj-db (db/db) mice. Put plainly: Long-term treatment of db/db mice. It counts as in vivo. As to the method:
Peptides or vehicle will be given once daily (group A-D) between 2°°-3°° p m. subcutaneously in the skin fold of the back. The regimen was continued for 18 weeks. From week 12 to 18 treatment was done twice a day in 6 of 12 animals per group.
Various parameters of the mice were investigated, i.e. health status (1), body weight (2), food consumption (3), blood glucose (4), glucose tolerance test (5), insulin data (6), glycosylated hemoglobin (7), pathology (8), and restimulation of T cells (9). • Health status (1) was good in all groups, no side effects of the treatment have been seen. • Body weight (2) was lower in all treated groups after 18 weeks of treatment (FIG. 13). […] The mean values of 12 animals per group are plotted. […] The relative body weight increase of 12 animals per group after a treatment of 122 days is plotted. […] Non-fasted blood glucose level (1 hour after peptide injection) is shown in FIG. 15A, i.e. the effect of a treatment with saline (A), CM1 (B), CM3-ANA01 (C) or exendin (D) on the non-fasted blood glucose levels. Blood glucose was measured from a tail bleed 1 hour after s.c. injection of saline (A) or the peptides CM1 (B), CM3-ANA01 (C) or exendin (D) in a concentration of 24 nmol/kg. […] Blood glucose was measured from a tail bleed after a 12-hour overnight fast 18 hours after s.c. injection of the test substances. Fasted blood glucose level 18h after peptide injection is reduced in the CM1 and CM3-ANA01 group. • An i.p. glucose tolerance test (5) (IPGTT) was conducted after 8 weeks of treatment on mice of the groups A-D. The basal blood glucose value (0 min) of 12 hour fasted animals has been determined by tail bleed followed by an s.c. injection of the test substance and an i.p. injection of 20% glucose solution (1g glucose per kg). Blood glucose has been further on determined 15, 30, 45, 60, 90 and 120 minutes after glucose injection. […] The serum was analysed for insulin with the Insulin Mouse Ultrasensitive ELISA (Cat.# EIA-3440, DRG). […]

The amount remaining is what is left of the initial amount, in per cent.

T2 sequence (P43220 24-463, species assumed): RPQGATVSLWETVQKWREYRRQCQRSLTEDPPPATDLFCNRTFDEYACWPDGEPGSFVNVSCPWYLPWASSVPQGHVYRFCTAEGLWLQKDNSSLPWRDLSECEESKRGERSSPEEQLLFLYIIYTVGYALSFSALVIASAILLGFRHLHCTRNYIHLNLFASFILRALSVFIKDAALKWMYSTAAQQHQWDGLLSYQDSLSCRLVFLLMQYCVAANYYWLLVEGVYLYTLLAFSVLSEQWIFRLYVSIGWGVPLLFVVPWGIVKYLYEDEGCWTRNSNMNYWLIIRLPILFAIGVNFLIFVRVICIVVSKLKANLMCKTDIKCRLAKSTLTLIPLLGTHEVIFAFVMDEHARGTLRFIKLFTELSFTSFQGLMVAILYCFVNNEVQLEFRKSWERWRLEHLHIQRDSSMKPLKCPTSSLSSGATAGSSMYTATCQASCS

On to “HAEGTFTSDVSSYLEGQAAKEFIAWLVKGRGRRDAAAAVAIAEELG [CM3-ANA03]”, for which the “in vitro plasma stability (comparison)” value at DPPIV [1] (10% human plasma, 37° C.) is reported as “strongly reduced stability compared to CM3”.
In the case of “HAEGTFTSDVSSYLEGQAAKEFIAWLVKGRGRRDFPEEVAIAEELG [CM3]”, the “ED50 (half maximum effective dose), cAMP increase” value at GLP-1 receptor turned out to be 187 µM. In addition, the “stability in human plasma in vitro” value at DPPIV [2] was “significantly stabilized”. The same substance returned an amount remaining at 9 h, 1 μM at DPPIV [1] (10% human plasma) of 63%.
For the substance “HAEGTFTSDVSSYLEGQAAKEFIAWLVKGRGAADFPEEVAIAEELG [CM3-ANA01]”, the “ED50 (half maximum effective dose), cAMP increase” value at GLP-1 receptor worked out at 159 µM. The “active GLP-1 as a % of the 0 h value after 9 h” value at DPPIV [1] (1 μM peptide, 10% human plasma, 37° C., 9 h) was found to be 84%. Further, on DPPIV [1] (10% human plasma, 37° C.), the “in vitro plasma stability (comparison)” value is on record as “higher plasma stability than CM3”. In addition, at DPPIV [1] (10% human plasma), the amount remaining at 9 h, 1 μM was 84%.
As for “PEG-CM3-ANA08: CM3-ANA08 covalently conjugated to unbranched 40 kDa mPEG maleimido propionamide via thiol of the C-terminal cysteine (HAEGTFTSDVSSYLEGQAAKEFIAWLVKGRGRRDFPEEVAIAEELGC)”, in the series with GLP-1 receptor (GLP-1 receptor transfected CHO cell line), the “ED50 relative to CM3 (lowered in vitro bioactivity)” value is recorded as “approximately 5 times”. Also, the signs of toxicity entry in the series with diabetic db/db mice (mouse, in vivo) is on record as “No signs of toxicity”. Besides, the blood glucose decrease entry in the series on diabetic db/db mice (treated versus non-treated group) is given as “significant blood glucose decrease”. For the same substance, the “peptide detected in the GLP-1 active ELISA” value with DPPIV [1] (0 hours) was determined as 19%.
In the case of GLP-1(7-37)—IP2-RR-GLP1(7-37) [CM1], the “anti-hyperglycemia effect (blood glucose relative to day 0)” value in series [3] is on record as “anti-hyperglycemia effect”. For the same substance, the clinically relevant immunogenicity in the series with BALB/c mice [4] was “absence of any clinically relevant immunogenicity”. In addition, the toxicity entry in the series with BALB/c mice [5] is on record as “no toxicity”. For the same substance, the “ED50 (plasma glucose)” value in [6] (single s.c. dose, 1 h measurements, percentage decrease of blood glucose) amounted to 0.61 μg/mouse. Further, the “fall in plasma glucose @1 h” value in series [6] (single s.c. injection of 1.1-3.0 nmol peptide, versus control, 1 hour) was 50% ± 14%. In [6] (single s.c. injection of 1.1-3.0 nmol peptide, versus control, 4 hours), the “fall in plasma glucose @4 h” value was found to be 0%. For the same substance, the food consumption result in [7] (24 nmol/kg s.c., 122 day treatment period, compared to the control) is on record as “significantly lower”. For the same substance, the “fasted blood glucose level” value in series [7] (12-hour overnight fast, 18h after peptide injection) is listed as “reduced”. In addition, the “non fasted blood glucose level compared to control” value in [7] (1h after s.c. peptide injection, 24 nmol/kg) is listed as 55%.
